ChEMBL document CHEMBL3991601, “The target landscape of clinical kinase drugs” (Science, 2017)
Activity calls are given as the source filed them.

Assays:
[1] = target: T1, Long-chain-fatty-acid--CoA ligase 5 (Homo sapiens, UniProt Q9ULC5)
T1 sequence (Q9ULC5 whole entry): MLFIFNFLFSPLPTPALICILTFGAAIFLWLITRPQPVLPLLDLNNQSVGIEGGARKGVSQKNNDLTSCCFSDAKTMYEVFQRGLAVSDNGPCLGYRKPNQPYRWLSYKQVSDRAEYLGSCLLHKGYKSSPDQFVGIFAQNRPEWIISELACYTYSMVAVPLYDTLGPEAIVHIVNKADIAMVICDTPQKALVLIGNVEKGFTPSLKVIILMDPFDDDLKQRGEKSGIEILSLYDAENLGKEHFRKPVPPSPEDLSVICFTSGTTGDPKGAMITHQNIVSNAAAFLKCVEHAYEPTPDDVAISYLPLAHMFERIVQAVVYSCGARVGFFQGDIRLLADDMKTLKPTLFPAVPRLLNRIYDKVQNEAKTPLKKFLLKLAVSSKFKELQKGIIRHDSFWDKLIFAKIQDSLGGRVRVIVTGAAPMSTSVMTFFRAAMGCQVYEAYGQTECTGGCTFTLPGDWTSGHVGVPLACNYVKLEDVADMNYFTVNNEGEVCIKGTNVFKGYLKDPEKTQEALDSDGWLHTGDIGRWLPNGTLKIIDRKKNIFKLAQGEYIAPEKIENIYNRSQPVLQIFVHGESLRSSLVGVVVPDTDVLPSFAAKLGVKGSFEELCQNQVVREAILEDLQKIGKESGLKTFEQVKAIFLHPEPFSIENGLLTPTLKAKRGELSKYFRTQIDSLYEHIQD

Ephrin type-A receptor 1 = target: T2, Ephrin type-A receptor 1 (Homo sapiens, UniProt P21709)
T2 sequence (P21709 whole entry): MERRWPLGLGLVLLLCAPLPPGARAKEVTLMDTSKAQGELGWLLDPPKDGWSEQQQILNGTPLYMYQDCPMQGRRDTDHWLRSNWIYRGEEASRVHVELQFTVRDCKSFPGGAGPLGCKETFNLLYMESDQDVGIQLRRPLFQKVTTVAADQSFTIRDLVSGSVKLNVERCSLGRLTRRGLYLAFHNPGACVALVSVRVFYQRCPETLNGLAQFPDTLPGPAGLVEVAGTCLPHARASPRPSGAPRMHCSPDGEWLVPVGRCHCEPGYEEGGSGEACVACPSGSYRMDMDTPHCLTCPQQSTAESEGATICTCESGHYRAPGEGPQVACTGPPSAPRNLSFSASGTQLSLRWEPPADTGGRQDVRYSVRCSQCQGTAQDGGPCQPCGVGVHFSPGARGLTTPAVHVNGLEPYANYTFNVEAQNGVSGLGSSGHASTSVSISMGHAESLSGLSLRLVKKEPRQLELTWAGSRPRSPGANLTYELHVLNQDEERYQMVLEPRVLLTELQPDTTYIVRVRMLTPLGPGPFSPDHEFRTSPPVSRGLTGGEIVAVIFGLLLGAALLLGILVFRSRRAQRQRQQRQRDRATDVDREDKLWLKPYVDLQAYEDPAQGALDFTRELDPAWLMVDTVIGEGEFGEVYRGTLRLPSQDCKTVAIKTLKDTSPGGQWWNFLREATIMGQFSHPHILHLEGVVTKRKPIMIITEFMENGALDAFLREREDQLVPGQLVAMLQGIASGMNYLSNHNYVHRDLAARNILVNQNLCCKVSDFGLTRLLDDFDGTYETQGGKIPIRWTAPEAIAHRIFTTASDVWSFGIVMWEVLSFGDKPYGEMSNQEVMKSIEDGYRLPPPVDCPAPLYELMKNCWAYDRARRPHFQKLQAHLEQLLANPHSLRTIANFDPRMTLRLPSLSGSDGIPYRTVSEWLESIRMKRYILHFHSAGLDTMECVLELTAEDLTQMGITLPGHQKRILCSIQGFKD

[2] = target: Mitogen-activated protein kinase 14 (Homo sapiens, UniProt Q16539)
Sequence of Mitogen-activated protein kinase 14 (Q16539 whole entry): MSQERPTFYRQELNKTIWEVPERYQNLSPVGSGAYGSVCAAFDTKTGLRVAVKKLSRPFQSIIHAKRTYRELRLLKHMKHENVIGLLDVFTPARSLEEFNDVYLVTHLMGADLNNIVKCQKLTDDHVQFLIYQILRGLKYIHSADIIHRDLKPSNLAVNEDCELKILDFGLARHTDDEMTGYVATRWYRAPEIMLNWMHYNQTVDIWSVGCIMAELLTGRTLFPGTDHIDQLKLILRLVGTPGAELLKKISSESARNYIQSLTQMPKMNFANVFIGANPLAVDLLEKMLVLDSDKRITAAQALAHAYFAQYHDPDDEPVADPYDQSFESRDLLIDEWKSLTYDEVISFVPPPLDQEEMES

[3] = target: High affinity nerve growth factor receptor (Homo sapiens, UniProt P04629)
Sequence of High affinity nerve growth factor receptor (P04629 whole entry, the tested form may be a part): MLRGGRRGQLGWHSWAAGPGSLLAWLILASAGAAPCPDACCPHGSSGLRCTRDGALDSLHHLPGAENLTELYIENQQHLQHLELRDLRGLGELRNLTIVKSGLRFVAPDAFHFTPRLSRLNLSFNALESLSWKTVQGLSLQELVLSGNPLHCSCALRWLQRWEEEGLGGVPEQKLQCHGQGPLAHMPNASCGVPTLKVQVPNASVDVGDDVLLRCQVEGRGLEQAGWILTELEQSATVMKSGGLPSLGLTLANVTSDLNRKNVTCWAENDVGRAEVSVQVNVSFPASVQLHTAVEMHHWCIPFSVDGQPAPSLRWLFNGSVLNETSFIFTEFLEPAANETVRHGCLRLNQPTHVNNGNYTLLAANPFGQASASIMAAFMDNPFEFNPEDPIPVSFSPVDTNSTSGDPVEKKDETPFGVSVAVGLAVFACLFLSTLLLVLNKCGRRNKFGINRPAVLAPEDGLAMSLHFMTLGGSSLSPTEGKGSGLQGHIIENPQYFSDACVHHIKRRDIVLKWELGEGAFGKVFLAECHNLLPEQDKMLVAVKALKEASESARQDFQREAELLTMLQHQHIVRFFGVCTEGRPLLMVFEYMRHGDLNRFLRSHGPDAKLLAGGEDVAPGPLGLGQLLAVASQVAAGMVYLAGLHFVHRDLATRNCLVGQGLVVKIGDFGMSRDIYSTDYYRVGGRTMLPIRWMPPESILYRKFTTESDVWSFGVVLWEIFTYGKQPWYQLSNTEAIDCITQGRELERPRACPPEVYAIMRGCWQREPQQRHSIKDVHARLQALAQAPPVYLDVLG

[4] = target: PAS domain-containing serine/threonine-protein kinase (Homo sapiens, UniProt Q96RG2)
Sequence of PAS domain-containing serine/threonine-protein kinase (Q96RG2 whole entry, the tested form may be a part): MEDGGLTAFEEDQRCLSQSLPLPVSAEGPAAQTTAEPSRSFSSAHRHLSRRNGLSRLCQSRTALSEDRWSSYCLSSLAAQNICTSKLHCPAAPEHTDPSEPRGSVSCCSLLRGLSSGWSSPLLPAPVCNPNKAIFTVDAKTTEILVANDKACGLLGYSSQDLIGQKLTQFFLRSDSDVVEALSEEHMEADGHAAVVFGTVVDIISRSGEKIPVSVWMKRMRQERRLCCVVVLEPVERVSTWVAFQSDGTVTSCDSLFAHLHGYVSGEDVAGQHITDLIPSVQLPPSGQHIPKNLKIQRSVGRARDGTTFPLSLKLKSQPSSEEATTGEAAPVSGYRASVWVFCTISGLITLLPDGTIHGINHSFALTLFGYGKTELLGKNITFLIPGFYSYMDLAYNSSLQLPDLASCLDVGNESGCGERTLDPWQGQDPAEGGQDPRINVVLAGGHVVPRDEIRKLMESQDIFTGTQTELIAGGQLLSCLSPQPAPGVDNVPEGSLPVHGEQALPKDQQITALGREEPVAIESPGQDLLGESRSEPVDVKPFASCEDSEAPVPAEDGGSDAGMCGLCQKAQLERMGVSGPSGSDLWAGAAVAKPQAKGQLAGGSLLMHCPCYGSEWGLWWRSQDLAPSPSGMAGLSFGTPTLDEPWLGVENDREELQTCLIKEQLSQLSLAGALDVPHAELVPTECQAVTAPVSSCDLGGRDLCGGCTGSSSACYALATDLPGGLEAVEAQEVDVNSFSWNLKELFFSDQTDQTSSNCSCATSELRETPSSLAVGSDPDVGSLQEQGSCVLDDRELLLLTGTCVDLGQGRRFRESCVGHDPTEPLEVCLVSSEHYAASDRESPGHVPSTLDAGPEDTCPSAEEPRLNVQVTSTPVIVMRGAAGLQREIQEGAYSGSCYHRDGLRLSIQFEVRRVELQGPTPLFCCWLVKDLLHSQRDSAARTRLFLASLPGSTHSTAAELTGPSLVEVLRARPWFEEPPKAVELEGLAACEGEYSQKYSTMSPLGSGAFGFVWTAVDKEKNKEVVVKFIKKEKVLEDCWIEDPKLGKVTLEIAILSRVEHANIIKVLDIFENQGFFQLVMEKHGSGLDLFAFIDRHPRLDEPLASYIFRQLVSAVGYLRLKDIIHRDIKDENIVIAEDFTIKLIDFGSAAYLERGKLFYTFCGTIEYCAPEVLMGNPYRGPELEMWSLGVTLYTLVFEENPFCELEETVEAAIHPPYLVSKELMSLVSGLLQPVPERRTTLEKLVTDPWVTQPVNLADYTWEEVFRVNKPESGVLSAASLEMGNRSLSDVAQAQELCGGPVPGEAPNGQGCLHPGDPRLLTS

[5] = target: Serine/threonine-protein kinase N3 (Homo sapiens, UniProt Q6P5Z2)
[6] = target: Protein kinase C theta type (Homo sapiens, UniProt Q04759)
Sequence of Protein kinase C theta type (Q04759 whole entry): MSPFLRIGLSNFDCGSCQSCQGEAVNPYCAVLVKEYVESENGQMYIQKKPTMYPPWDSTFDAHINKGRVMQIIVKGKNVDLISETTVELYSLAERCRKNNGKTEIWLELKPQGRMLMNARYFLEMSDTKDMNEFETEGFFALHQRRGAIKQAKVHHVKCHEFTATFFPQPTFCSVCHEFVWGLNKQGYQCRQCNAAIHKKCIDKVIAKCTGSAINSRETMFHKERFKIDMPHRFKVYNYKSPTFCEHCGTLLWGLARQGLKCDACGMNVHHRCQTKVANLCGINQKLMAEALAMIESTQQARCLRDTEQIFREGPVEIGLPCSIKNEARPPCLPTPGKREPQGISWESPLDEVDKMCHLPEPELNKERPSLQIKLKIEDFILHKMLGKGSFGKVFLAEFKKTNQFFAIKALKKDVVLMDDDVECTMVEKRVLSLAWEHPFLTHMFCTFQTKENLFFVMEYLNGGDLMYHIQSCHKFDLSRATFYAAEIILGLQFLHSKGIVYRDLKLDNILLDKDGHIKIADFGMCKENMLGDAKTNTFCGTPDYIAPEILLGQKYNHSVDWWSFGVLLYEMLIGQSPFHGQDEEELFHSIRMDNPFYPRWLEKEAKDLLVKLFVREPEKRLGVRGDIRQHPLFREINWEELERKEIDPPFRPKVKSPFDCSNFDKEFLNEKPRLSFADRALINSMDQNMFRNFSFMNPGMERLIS

[7] = target: Serine/threonine-protein kinase 38-like (Homo sapiens, UniProt Q9Y2H1)
Sequence of Serine/threonine-protein kinase 38-like (Q9Y2H1 whole entry): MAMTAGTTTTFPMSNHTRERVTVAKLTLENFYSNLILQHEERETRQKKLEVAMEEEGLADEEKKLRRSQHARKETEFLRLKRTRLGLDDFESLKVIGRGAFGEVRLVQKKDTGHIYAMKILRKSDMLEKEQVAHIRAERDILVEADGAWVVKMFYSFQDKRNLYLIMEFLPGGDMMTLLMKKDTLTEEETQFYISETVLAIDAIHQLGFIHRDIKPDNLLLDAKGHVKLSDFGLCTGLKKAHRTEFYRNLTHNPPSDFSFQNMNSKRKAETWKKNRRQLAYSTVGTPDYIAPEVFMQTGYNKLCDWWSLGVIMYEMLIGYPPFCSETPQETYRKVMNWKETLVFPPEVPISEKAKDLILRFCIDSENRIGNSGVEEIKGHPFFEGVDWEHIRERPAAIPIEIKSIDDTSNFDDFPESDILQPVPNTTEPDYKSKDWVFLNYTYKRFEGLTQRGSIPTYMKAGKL

[8] = target: Dual specificity testis-specific protein kinase 1 (Homo sapiens, UniProt Q15569)
Sequence of Dual specificity testis-specific protein kinase 1 (Q15569 whole entry): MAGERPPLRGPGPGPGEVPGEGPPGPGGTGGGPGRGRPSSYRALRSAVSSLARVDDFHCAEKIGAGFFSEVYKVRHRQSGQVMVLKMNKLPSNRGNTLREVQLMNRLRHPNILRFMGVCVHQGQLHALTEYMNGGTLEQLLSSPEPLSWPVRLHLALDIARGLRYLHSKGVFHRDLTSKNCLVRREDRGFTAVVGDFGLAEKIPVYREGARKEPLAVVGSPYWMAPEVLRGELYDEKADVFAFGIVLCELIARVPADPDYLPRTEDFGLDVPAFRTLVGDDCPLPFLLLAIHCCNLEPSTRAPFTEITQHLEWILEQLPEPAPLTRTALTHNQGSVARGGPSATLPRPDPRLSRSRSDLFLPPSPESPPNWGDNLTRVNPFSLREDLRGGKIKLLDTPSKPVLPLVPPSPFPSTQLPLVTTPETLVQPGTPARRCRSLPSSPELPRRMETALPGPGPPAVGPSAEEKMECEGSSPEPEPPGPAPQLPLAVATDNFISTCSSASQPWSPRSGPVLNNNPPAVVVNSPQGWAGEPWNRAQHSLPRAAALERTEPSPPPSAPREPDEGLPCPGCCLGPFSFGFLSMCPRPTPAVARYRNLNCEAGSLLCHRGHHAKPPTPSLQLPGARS

[9] = target: G protein-coupled receptor kinase 6 (Homo sapiens, UniProt P43250)
[10] = target: Uncharacterized aarF domain-containing protein kinase 5 (Homo sapiens, UniProt Q3MIX3)
Sequence of Uncharacterized aarF domain-containing protein kinase 5 (Q3MIX3 whole entry, the tested form may be a part): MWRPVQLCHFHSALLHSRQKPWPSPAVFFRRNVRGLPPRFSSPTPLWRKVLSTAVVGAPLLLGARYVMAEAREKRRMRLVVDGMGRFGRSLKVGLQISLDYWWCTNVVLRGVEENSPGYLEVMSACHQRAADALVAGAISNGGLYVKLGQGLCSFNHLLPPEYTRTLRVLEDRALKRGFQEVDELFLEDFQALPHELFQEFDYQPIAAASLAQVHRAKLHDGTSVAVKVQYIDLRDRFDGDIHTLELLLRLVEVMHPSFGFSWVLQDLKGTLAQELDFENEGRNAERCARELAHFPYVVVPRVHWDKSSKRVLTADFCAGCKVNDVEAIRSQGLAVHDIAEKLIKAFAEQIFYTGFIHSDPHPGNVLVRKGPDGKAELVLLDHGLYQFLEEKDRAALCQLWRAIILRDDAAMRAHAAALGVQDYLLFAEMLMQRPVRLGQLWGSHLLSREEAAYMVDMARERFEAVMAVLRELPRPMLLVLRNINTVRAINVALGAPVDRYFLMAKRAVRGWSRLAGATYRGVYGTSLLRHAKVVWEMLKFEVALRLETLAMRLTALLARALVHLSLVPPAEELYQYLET
Further: in the data inactive means no Kd found up to 30 µM.

Row | SMILES | Kd [1] | Kd (Ephrin type-A receptor 1) | Kd [2] | Kd [3] | Kd [4] | Kd [5] | Kd [6] | Kd [7] | Kd [8] | Kd [9] | Kd [10]
1 | Cc1ccc(S(=O)(=O)Nc2nc3ccccc3nc2Nc2ccc3nsnc3c2)cc1 | > 30 µM (inactive) | > 30 µM (inactive) | > 30 µM (inactive) | > 30 µM (inactive) | > 30 µM (inactive) | > 30 µM (inactive) | > 30 µM (inactive) | > 30 µM (inactive) | > 30 µM (inactive) |  | 
2 | Cc1c(F)cc(C(=O)NC2CC2)cc1-c1ccc(C(=O)NCC(C)(C)C)cn1 [LOSMAPIMOD] | 1.69 µM | > 30 µM (inactive) |  | > 30 µM (inactive) | > 30 µM (inactive) | > 30 µM (inactive) | > 30 µM (inactive) | > 30 µM (inactive) | > 30 µM (inactive) | > 30 µM (inactive) | 
3 | C=CC(=O)N1CCC(Oc2cc3c(Nc4ccc(Cl)c(Cl)c4F)ncnc3cc2OC)CC1 [POZIOTINIB] |  |  | > 30 µM (inactive) | > 30 µM (inactive) |  |  |  | > 30 µM (inactive) | > 30 µM (inactive) | > 30 µM (inactive) | 
4 | CC(=O)Nc1cccc(-n2c(=O)n(C3CC3)c(=O)c3c(Nc4ccc(I)cc4F)n(C)c(=O)c(C)c32)c1 [TRAMETINIB] |  | > 30 µM (inactive) | > 30 µM (inactive) | > 30 µM (inactive) | > 30 µM (inactive) | > 30 µM (inactive) | > 30 µM (inactive) |  | > 30 µM (inactive) | > 30 µM (inactive) | > 30 µM (inactive)
5 | O=C(Nc1cccc(Cl)c1)Nc1ncc(CCNc2ncnc3ccsc23)s1 [SNS-314] | > 30 µM (inactive) | > 30 µM (inactive) |  |  |  | > 30 µM (inactive) |  |  |  | > 30 µM (inactive) | > 30 µM (inactive)
6 | CN1CC[C@@H](c2c(O)cc(O)c3c(=O)cc(-c4ccccc4Cl)oc23)[C@@H]1CO | > 30 µM (inactive) | > 30 µM (inactive) | > 30 µM (inactive) | > 30 µM (inactive) | > 30 µM (inactive) | > 30 µM (inactive) | > 30 µM (inactive) | > 30 µM (inactive) | > 30 µM (inactive) | > 30 µM (inactive) | 
7 | O=c1sn(-c2cccc3ccccc23)c(=O)n1Cc1ccccc1 [TIDEGLUSIB] | > 30 µM (inactive) | > 30 µM (inactive) | > 30 µM (inactive) | > 30 µM (inactive) | > 30 µM (inactive) | > 30 µM (inactive) | > 30 µM (inactive) | > 30 µM (inactive) | > 30 µM (inactive) | > 30 µM (inactive) | 
8 | COc1cc(OC)c(/C=C/S(=O)(=O)Cc2ccc(OC)c(NCC(=O)O)c2)c(OC)c1 [RIGOSERTIB] |  | > 30 µM (inactive) | > 30 µM (inactive) | > 30 µM (inactive) | > 30 µM (inactive) | > 30 µM (inactive) | > 30 µM (inactive) |  | > 30 µM (inactive) | > 30 µM (inactive) | > 30 µM (inactive)
9 | C[C@@H](c1ccc2nccn2c1)n1nnc2ncc(-c3cnn(C)c3)nc21 [SAVOLITINIB] | > 30 µM (inactive) |  | > 30 µM (inactive) |  |  |  |  | > 30 µM (inactive) | > 30 µM (inactive) |  | 
10 | COCCNCc1ccc(-c2cc3nccc(Oc4ccc(NC(=S)NC(=O)Cc5ccc(F)cc5)cc4F)c3s2)nc1 [GLESATINIB] | > 30 µM (inactive) | > 30 µM (inactive) | > 30 µM (inactive) | > 30 µM (inactive) | > 30 µM (inactive) | > 30 µM (inactive) | > 30 µM (inactive) |  | > 30 µM (inactive) | > 30 µM (inactive) | > 30 µM (inactive)
11 | Cc1cc(-c2cc(O)ccc2Cl)cc2nnc(Nc3ccc(OCCN4CCCC4)cc3)nc12 | > 30 µM (inactive) | > 30 µM (inactive) | > 30 µM (inactive) | > 30 µM (inactive) | > 30 µM (inactive) | > 30 µM (inactive) | > 30 µM (inactive) | > 30 µM (inactive) | > 30 µM (inactive) |  | > 30 µM (inactive)
12 | O=C(c1ccc(F)c(F)c1Nc1ccc(I)cc1F)N1CC(O)([C@@H]2CCCCN2)C1 [COBIMETINIB] | > 30 µM (inactive) | > 30 µM (inactive) | > 30 µM (inactive) | > 30 µM (inactive) |  | > 30 µM (inactive) | > 30 µM (inactive) | > 30 µM (inactive) | > 30 µM (inactive) |  | 
13 | COC(=O)[C@@]1(O)C[C@H]2O[C@]1(C)n1c3ccccc3c3c4c(c5c6ccccc6n2c5c31)C(=O)NC4 [K-252A] | > 30 µM (inactive) | > 30 µM (inactive) | > 30 µM (inactive) |  |  | > 30 µM (inactive) |  | 2.14 µM (active) | > 30 µM (inactive) |  | > 30 µM (inactive)
14 | Cc1ccc(-n2nc(C(C)(C)C)cc2NC(=O)NCc2cc(F)ccc2Oc2ccc3c(cnn3CCO)c2)cc1 [PEXMETINIB] | > 30 µM (inactive) | 2.64 µM (active) |  | 3.13 µM (active) | > 30 µM (inactive) | > 30 µM (inactive) | > 30 µM (inactive) | > 30 µM (inactive) | > 30 µM (inactive) | > 30 µM (inactive) | 

More lines, now with the values ahead:

Row | Kd [1] | Kd (Ephrin type-A receptor 1) | Kd [2] | Kd [3] | Kd [4] | Kd [5] | Kd [6] | Kd [7] | Kd [8] | Kd [9] | Kd [10] | SMILES
15 |  | > 30 µM (inactive) | > 30 µM (inactive) | > 30 µM (inactive) |  |  | > 30 µM (inactive) | > 30 µM (inactive) | > 30 µM (inactive) | > 30 µM (inactive) | > 30 µM (inactive) | O=C1NC(=O)/C(=C/c2ccc3nccc(-c4ccncc4)c3c2)S1 [GSK-1059615]
16 | > 30 µM (inactive) | > 30 µM (inactive) | > 30 µM (inactive) | > 30 µM (inactive) | > 30 µM (inactive) | > 30 µM (inactive) | > 30 µM (inactive) |  | > 30 µM (inactive) | > 30 µM (inactive) | > 30 µM (inactive) | Cn1cc(-c2ccc3nnc(C(F)(F)c4ccc5ncccc5c4)n3n2)cn1 [JNJ-38877605]
17 | > 30 µM (inactive) | > 30 µM (inactive) |  |  | > 30 µM (inactive) | > 30 µM (inactive) |  | > 30 µM (inactive) | > 30 µM (inactive) |  | > 30 µM (inactive) | OCCn1cc(-c2cnc3nnn(Cc4ccc5ncccc5c4)c3n2)cn1 [PF-04217903]
18 |  | > 30 µM (inactive) | > 30 µM (inactive) | > 30 µM (inactive) | > 30 µM (inactive) | > 30 µM (inactive) | > 30 µM (inactive) | > 30 µM (inactive) | > 30 µM (inactive) | > 30 µM (inactive) |  | COc1ccc(-c2ccc3c(N4CCOC[C@@H]4C)nc(N4CCOC[C@@H]4C)nc3n2)cc1CO [AZD-8055]
19 | > 30 µM (inactive) | > 30 µM (inactive) | > 30 µM (inactive) | 2.25 µM | > 30 µM (inactive) | > 30 µM (inactive) | > 30 µM (inactive) |  | > 30 µM (inactive) | > 30 µM (inactive) | > 30 µM (inactive) | COc1cc(CCc2cc(NC(=O)c3ccc(N4C[C@@H](C)N[C@@H](C)C4)cc3)n[nH]2)cc(OC)c1 [AZD-4547]
